{"source": "paper PMC4751497", "about": "“Characterization of SCO4439, a D-alanyl-D-alanine carboxypeptidase involved in spore cell wall maturation, resistance, and germination in Streptomyces coelicolor” (Scientific Reports, 2016)", "target": "T1, His6-SCO4439 (Streptomyces coelicolor, UniProt Q9KZY7)", "T1 construct": "whole SCO4439 gene with N-terminal His6 tag in pET11a (pBRB7), expressed in E. coli JM109 (DE3), HisTrap purified, tag kept; native protein 84 kDa; tag followed by VARED (from primer BRB7F)", "T1 sequence (Q9KZY7 entry or part of it)": "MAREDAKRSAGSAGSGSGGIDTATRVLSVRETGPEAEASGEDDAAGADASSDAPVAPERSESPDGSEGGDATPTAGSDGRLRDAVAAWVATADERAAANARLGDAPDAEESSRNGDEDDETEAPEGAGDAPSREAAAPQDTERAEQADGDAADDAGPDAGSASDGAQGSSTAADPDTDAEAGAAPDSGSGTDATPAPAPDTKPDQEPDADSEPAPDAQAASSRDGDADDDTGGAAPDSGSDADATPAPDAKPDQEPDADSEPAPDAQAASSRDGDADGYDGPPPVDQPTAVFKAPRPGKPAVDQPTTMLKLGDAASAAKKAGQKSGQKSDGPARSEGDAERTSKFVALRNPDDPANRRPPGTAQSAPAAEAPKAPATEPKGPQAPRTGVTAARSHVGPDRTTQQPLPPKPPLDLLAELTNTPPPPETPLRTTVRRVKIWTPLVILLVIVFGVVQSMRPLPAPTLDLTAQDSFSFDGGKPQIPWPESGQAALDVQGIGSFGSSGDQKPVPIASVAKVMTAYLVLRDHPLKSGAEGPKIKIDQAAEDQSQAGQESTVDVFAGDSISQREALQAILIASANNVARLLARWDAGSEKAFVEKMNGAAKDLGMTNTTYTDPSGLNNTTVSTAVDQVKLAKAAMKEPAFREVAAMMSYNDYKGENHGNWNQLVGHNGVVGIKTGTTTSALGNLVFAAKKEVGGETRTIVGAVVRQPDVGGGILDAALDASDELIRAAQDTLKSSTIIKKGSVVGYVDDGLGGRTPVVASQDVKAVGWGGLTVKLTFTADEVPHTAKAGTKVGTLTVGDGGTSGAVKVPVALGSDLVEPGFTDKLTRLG", "assay": "D-Ala release, D-amino acid oxidase-peroxidase coupled colorimetric assay", "type": "biochemical"}
{"smiles": "CC1(C)S[C@@H]2[C@H](NC(=O)Cc3ccccc3)C(=O)N2[C@H]1C(=O)O", "note": "[penicillin G]", "values": [{"measurement": "IC50", "value": 1000, "unit": "µM"}]}
